In article PMC9530963, “A cathelicidin antimicrobial peptide from Hydrophis cyanocinctus inhibits Zika virus infection by downregulating expression of a viral entry factor” (The Journal of Biological Chemistry, 2022):

Test system: AXL
Assay: Effect of AC and PKA on Hc-CATH-induced AXL downregulation in A549 cells
Format: cell-based, Homo sapiens
Settings: 1 h pre-incubation of A549 cells, then Hc-CATH 5 μM, 24 h, Western blot
Method: Figure 6 Hc-CATH downregulates AXL via inhibiting COX-2/PGE2/AC/PKA pathway.A, effect of Hc-CATH on COX-2 protein level. A549 cells were incubated with Hc-CATH (1.25, 2.5, or 5 μM) or PBS (solvent of Hc-CATH) at 37 °C for 24 h, COX-2 protein level was examined by Western blot (upper panel) and analyzed by ImageJ (lower panel). B, effect of Hc-CATH on the enzymatic activity of COX-2. Hc-CATH (1.25, 2.5, 5, and 10 μM) or PBS was incubated with COX-2. After incubation at 37 °C for 10 min, the enzymatic activity of COX-2 was detected by enzyme activity inhibitor screening kit. Celecoxib (COX-2 inhibitor, 100 nM) was used as positive control. C, effect of Hc-CATH on PGE2 production. A549 cells were incubated with Hc-CATH (5 μM) at 37 °C. After incubation for 24 h, the level of PGE2 in the cell supernatant was detected by ELISA. D and E, effect of AC (D) and PKA (E) on Hc-CATH-induced AXL downregulation. A549 cells were incubated with forskolin (FSK, agonist of AC, 10 μM) or H89 (inhibitor of PKA, 5 μM) at 37 °C. After incubation for 1 h, the culture media were removed, cells were washed three times with PBS, and fresh culture media were added to cells in the presence of Hc-CATH (5 μM). After incubation for 24 h, AXL protein level was examined by Western blot (upper panel of D and E) and analyzed by ImageJ (lower panel of D and E). ns, not significant, ∗∗p < 0.01, and ∗∗∗p < 0.001. […]

Structure (SMILES)	effect on Hc-CATH-induced AXL downregulation (FSK 10 μM)	effect on Hc-CATH-mediated AXL downregulation (H89 5 μM)
C=C[C@@]1(C)CC(=O)[C@]2(O)[C@@]3(C)[C@@H](O)CCC(C)(C)[C@@H]3[C@H](O)[C@H](OC(C)=O)[C@@]2(C)O1 [FSK, forskolin]	effectively counteracted the Hc-CATH-induced AXL downregulation	–
O=S(=O)(NCCNC/C=C/c1ccc(Br)cc1)c1cccc2cnccc12 [H89]	–	significantly facilitated Hc-CATH-mediated AXL downregulation
